Assay results as given in the NIST ThermoML archive (doi:10.1021/je9004992).

Assay: molar heat capacity at constant pressure
Conditions: Liquid, Small sample (50 mg) DSC

CCCCCCn1cc[n+](C)c1.F[B-](F)(F)F [1-hexyl-3-methylimidazolium tetrafluoroborate]
molar heat capacity at constant pressure [J/K/mol]
Conditions	283.15 K	288.15 K	293.15 K	298.15 K	303.15 K	308.15 K	313.15 K	318.15 K	323.15 K
100 kPa	422.77	425	427.34	429.8	432.36	435.03	437.81	440.7	443.69
2000 kPa	422.81	425.04	427.38	429.83	432.39	435.06	437.84	440.72	443.72
4000 kPa	422.85	425.08	427.42	429.87	432.43	435.1	437.87	440.75	443.74
6000 kPa	422.89	425.12	427.46	429.91	432.47	435.13	437.9	440.78	443.77
8000 kPa	422.94	425.17	427.5	429.95	432.5	435.17	437.93	440.81	443.8
10000 kPa	422.98	425.21	427.54	429.99	432.54	435.2	437.97	440.84	443.82
12000 kPa	423.02	425.25	427.59	430.03	432.58	435.23	438	440.87	443.85
14000 kPa	423.07	425.29	427.63	430.07	432.61	435.27	438.03	440.9	443.88
20000 kPa	423.2	425.42	427.75	430.18	432.72	435.37	438.13	440.99	443.96
30000 kPa	423.41	425.63	427.95	430.38	432.91	435.55	438.29	441.14	444.09
40000 kPa	423.63	425.84	428.15	430.57	433.09	435.72	438.45	441.28	444.22
50000 kPa	423.85	426.05	428.36	430.77	433.28	435.89	438.61	441.43	444.35
60000 kPa	424.07	426.26	428.56	430.96	433.46	436.07	438.77	441.58	444.49
